# In patent US20230104487A1, “11-(4-CHLOROPHENYL)-4-(2,3-DIHYDRO-1H-INDOLE-1-CARBONYL)-3,11-DIMETHYL-5,10,DIOXATRICYCLO[7.4.0.0,2,6,]TRIDECA-1,3,6,8-TETRAEN-13-ONE AND DERIVATIVES AS DESTABILIZER OF CRY1 FOR THE TREATMENT OF CIRCADIAN RHYTHM ASSOCIATED DISEASES AND DISORDERS” (KOC UNIVERSITESI, priority 2019, published 2023):
# Entries after “also recorded” stand apart in the source; their conditions may differ.
# How the values were obtained:
# U2-OS Bmal1-dLuc cells = test: Real-time monitoring of circadian rhythm, U2-OS Bmal1-dLuc; type: cell-based, human
# Experimental: This assay was performed with two different equipment: Synergy H1 (BioTek) with 96-well plate and LumiCycle luminometer (Actimetrics) with 35 mm plates. Initial screening of molecules to determine their effect on the circadian period was performed in 96-well plate via Synergy H1. Clear 35-mm plates are used in LumiCycle luminometer which provides high resolution data describing the circadian oscillation. For 96-plate tests, 50000 U2-OS Bmal1-dLuc cells were seeded on an opaque 96-well plate and cultured overnight. Next day cells were reset by adding dexamethasone (DXM) ([…] final) for 2 h. Then medium is changed to bioluminescence recording media which contains the following in 1 L: DMEM powder (sigma D-2902, 10×1 L), 0.35 gr sodium bi-carbonate (tissue culture grade, sigma S5761), 3.5 gr D (+) glucose powder (tissue culture grade, sigma G7021), 10 mL 1M HEPES buffer (Gibco 15140-122), 2.5 mL Pen/Strep (100 ug/ml), 50 mL 5% FBS and up to 1 L sterile milliQ water. Luciferin is added freshly with 0.1 mM final concentration. Molecules were added to the bioluminescence recording media at desired concentration (0.5% final DMSO concentration). Plates were sealed with optically clear film to prevent evaporation and gas exchange thereby to maintain homeostasis of the cells.
# Luminescence values were recorded at 32° C. for each 30 minutes with 15 seconds integration time via Synergy H1 luminometer for a week. For LumiCycle, 400×10^3 U2-OS Bmal1-dLuc or NIH3T3 mPer2-dLuc cells were seeded to 35 mm plates and then procedure given above was followed with a change in the last step. Plates were sealed with vacuum grease and placed to LumiCycle. Each plate was recorded continuously every 10 minutes for 70 seconds at 37° C. via photomultiplier tubes. Period and amplitude data were obtained from LumiCycle Analysis software. To detect the effect of FORMULA I in the absence of CRYs, Cry1^−/−/Cry2^−/− mouse embryonic fibroblasts (CRYDKO MEFs) transiently transfected with pGL3-Per2-Luc (luciferase reporter) were used. 3×10^5 CRYDKO cells were seeded in 35 mm clear plates. Next day, cells were transfected with 4000 ng pGL3-Per2-Luc via Fugene6 transfection reagent according to the manufacturer's instruction. In short, 3:1 ratio of Fugene6 in μl against transfected DNA amount in μg was kept in transfections. 72 h after transfection cells were synchronized with DXM for two hours. Then, medium was changed with lumicycle medium having DMSO or molecule, sealed with vacuum grease, and placed to LumiCycle.
# BMAL1 = BMAL1 mRNA and protein, synchronized U2-OS cells; type: cell-based, human; conditions: 10 μM
# Experimental: Cells were lysed in RIPA buffer (50 mM Tris, 150 mM NaCl, 1% Triton-X, 0.1% SDS) with fresh Protease inhibitor cocktail (PIC). After centrifugation at 13000 rpm for 15 minutes at 4° C., supernatant was used to determine the protein amount using Pierce Protein Assay (Thermo Scientific) according to the manufacturer's instruction. Mice liver samples were homogenized and lysed with Dounce homogenizer and RIPA buffer. After homogenization samples were incubated 10 minutes on ice. After centrifugation 13000 rpm 15 minutes at 4° C. supernatant was used for the whole cell lysate. Subcellular fractionation of liver samples: Liver samples were homogenized with cytosolic lysis buffer (10 mM HEPES pH 7.9, 10 mM KCl, 0.1 mM EDTA, 0.05% NP40, proteasome inhibitor) by pipetting 40 times with a cut tip. Then samples were incubated 10 minutes on ice and centrifuged for 3 minutes at 3000 rpm at 4° C. Supernatant was saved in a new tube, and pellet was processed for the nuclear fraction. […] ECL buffer system (Advansta WesternBright) was used to visualize HRP chemi-luminescence via BioRad ChemiDoc Touch visualizer.
# QIAGEN RNeasy Mini Kit was used to isolate the mRNA. […] Quantity of RNA was determined by Nanodrop 2000 (Thermo Scientific). […] For quantitative real time PCR (qRT-PCR) analysis cDNAs were further diluted 5-fold (1:5). mRNA expression levels were calculated by qRT-PCR with the SYBR Green. […]
structure (smiles),measurement,setting,value
"Cc1c(C(=O)N2CCc3ccccc32)oc2ccc3c(c12)C(=O)CC(C)(c1ccc(Cl)cc1)O3 (centres unmarked) [FORMULA I, 11-(4-chlorophenyl)-4-(2,3-dihydro-1H-indole-1-carbonyl)-3,11-dimethyl-5,10,dioxatricyclo[7.4.0.0,2,6,]trideca-1,3,6,8-tetraen-13-one]",EC50,"U2-OS Bmal1-dLuc cells; Homo sapiens, U2OS, U2-OS Bmal1-dLuc, read-out: EC50 of period lengthening and rhythm dampening",~6.5 µM
same,activity / dose responsive effect on circadian rhythm,U2-OS Bmal1-dLuc cells; U2-OS Bmal1-dLuc,showed the best dose responsive effect
same,effect on amplitude of the rhythm,U2-OS Bmal1-dLuc cells; dose-dependent,dampened the rhythm
same,effect on period of circadian rhythm,U2-OS Bmal1-dLuc cells; dose-dependent,significantly lengthened the period; also recorded: lengthened the circadian rhythm dose dependently
same,mRNA and protein levels of BMAL1,BMAL1,Decreased mRNA and protein levels of BMAL1
